IC50 data for 88 compounds are collected here from PubChem BioAssay AID2305 (GlaxoSmithKline (GSK), 2010).

The assay relates to P. falciparum 3D7 growth, pLDH absorbance. Description: P. falciparum 3D7 growth inhibition, dose response, strain 3D7 (AID 2305).

In the case of `CN(CCc1ccccc1)c1ncc(-c2ccccc2CNCc2ccccc2O)cn1`, the IC50 (commonly the concentration at which inhibition is half-maximal) was found to be 1.02 µM.

On to `O=C(/C=C/c1ccc(Cl)c(Cl)c1)NCCCCCN1CCC(NC(=S)Nc2cccc(Cl)c2)CC1`, for which the 50% inhibitory concentration (IC50) was 0.87 µM.

`O=C(Nc1cccc(CN2CCN(C(=O)c3cccc(Cl)c3)CC2)c1)c1cccs1` had an IC50 of 0.18 µM.

The compound `COc1cc(C)nc2ccc(NC(=O)c3cc(C(F)(F)F)cc(C(F)(F)F)c3)cc12` gave an IC50 of 0.91 µM.

`O=C(/C=C/c1ccc(Cl)c(Cl)c1)NCCCCCN1CCCC(CNC(=O)/C=C/c2ccccc2)C1` (stereo not drawn): the IC50 was determined as 0.79 µM.

Compound `O=C(Nc1ccc(Br)cc1)N(CCN1CCOCC1)CC(O)COCc1ccc(F)cc1` (stereo not drawn) displayed an IC50 of 1.04 µM.

Take `COc1ccc(CN(C)CCOc2ccc(NC(=O)c3cccc4c(=O)c5cc(SC)ccc5[nH]c34)cc2)cc1OC`: the IC50 came out at 0.88 µM.

`Fc1ccc2nc(-c3ccc(-c4ccc(CN5CCC(CCN6CCCCC6)CC5)cc4)s3)[nH]c2c1` registered an IC50 of 0.14 µM.

Regarding `COc1cccc(-c2cccc(-c3ccc(NC(=O)c4ccc([N+](=O)[O-])o4)cc3)n2)c1`, the IC50 is 0.52 µM.

With `COc1cc2nc(N3CCN(C(=O)c4c(Cl)nsc4-c4ccccc4Cl)CC3)nc(N)c2cc1OC`, the IC50 came out at 0.53 µM.

Regarding `CCCN1CCC(NCc2cn(C)nc2-c2ccc(Oc3ccccc3)cc2)CC1`, the IC50 came to 1.44 µM.

In the case of `CC(=NNC(N)=O)C1=C(O)C(c2ccccc2)N(C2CCCCC2)C1=O` (stereo not drawn), the IC50 was determined as 0.03 µM.

As to `Cc1cccc2[nH]c(-c3ccc(-c4ccc(CNCCN5CCNCC5)cc4)s3)nc12`, the IC50 was 1.15 µM.

In the case of `O=[N+]([O-])c1ccc2nc(Nc3ccc(Cl)c(Cl)c3)c(Nc3ccc(Cl)c(Cl)c3)nc2c1`, the IC50 was found to be 0.79 µM.

`COc1ccc2nccc([C@@H](O)CN3CCC(NCCOc4cccc(F)c4F)CC3)c2c1`: the IC50 came to 0.24 µM.

Take `Cc1ccc(C)c(NC(=O)NC2CCN(c3ccnc(Nc4ccc(F)cc4)n3)C2)c1` (stereo not drawn): the IC50 was 0.68 µM.

Compound `O=C(CCc1cccnc1)Nc1cccc(-c2ccc(-c3nc4ccc(C(F)(F)F)cc4[nH]3)cc2)c1` gave an IC50 of 0.87 µM.

`CCCCN(CCCC)C(=Nc1cccc(Cl)c1Cl)Nc1ccc(C#N)cc1O` yielded a half-maximal inhibitory concentration (IC50) of 0.85 µM.

`CC(Cc1ccc(NC(=O)c2ccc(CNCCCCc3ccccc3)cc2)cc1)NCCc1cccc(Cl)c1` (stereo not drawn) gave an IC50 of 0.33 µM.

For `Cc1cc(-c2nc3ccc(N4CCN(C)CC4)cc3[nH]2)nn1Cc1cc(Cl)ccc1OCC(C)C`, the IC50 worked out at 0.88 µM.

For `COc1cc(C2=NN(S(=O)(=O)c3c(C)cc(C)cc3C)CCCC2)ccc1Cl`, the IC50 was 0.78 µM.

Compound `CCOc1cc2ncnc(Nc3ccc(OCc4ccccc4F)c(Cl)c3)c2cc1OCC` gave an IC50 of 0.6 µM.

On to `COc1ccc(C(=O)Nc2ccc(-c3nc4ccc(C)cc4[nH]3)cc2)cc1OC`, for which the IC50 turned out to be 0.76 µM.

`CCOC(=O)c1ccc(N(CCCN(CCCN(c2ccc(C(=O)OCC)cc2)S(=O)(=O)c2ccc(C)cc2)CCc2ccc(O)cc2)S(=O)(=O)c2ccc(C)cc2)cc1` registered an IC50 of 1.05 µM.

Compound `Cc1nc(-c2cccc(Nc3nccc(NCC(O)c4ccc(C(F)(F)F)cc4)n3)c2)cs1` (stereo not drawn) displayed an IC50 of 0.51 µM.

`CCNC(=O)Nc1ccc(N(C)c2ccnc(NC3CC3)n2)cc1` yielded an IC50 of 0.8 µM.

With `COc1ccc(Nc2ncc(C#N)c(Nc3ccccc3C(N)=O)n2)cc1N1CCN(C)CC1`, the IC50 came to 0.14 µM.

Compound `CCCCCCOc1ccc(C(N)=NCc2ccccc2)c2c1CCCC2` gave an IC50 of 1.27 µM.

For the compound `O=C(Nc1cccc(CN2CCCN(Cc3ccc(O)cc3)CC2)c1)c1cccc(Cl)c1`, the IC50 stood at 0.91 µM.

Turning to `OCc1ccc(-c2cncc(Nc3cccc(Cl)c3)c2)cc1`, the IC50 is 0.07 µM.

On to `CC1(C)CCC(C)(C)c2c1ccc(C1CCN(CCCCNC(=O)c3ccc(-c4ccc(C#N)cc4)cc3)CC1)c2OCC(N)=O`, for which the IC50 is 0.42 µM.

`O=C(N[C@@H](CC1CCCCC1)C(=O)NCCN1CCCCC1)c1ccc(O)c(-c2cccc(C(F)(F)F)c2)c1` displayed a half-inhibitory concentration (IC50) of 0.83 µM.

Regarding `Fc1ccc(-c2csc3ncnc(Cl)c23)cc1`, the IC50 is 0.33 µM.

The compound `O=C(NCCc1ccc(Cl)c(Cl)c1)c1ccc(CNC(=O)c2ccc(O)c(-c3ccc(Cl)c(Cl)c3)c2)cc1` had an IC50 of 0.81 µM.

`CC(C)c1ccc(CN2CCC(CNC(=O)c3cc(-c4cccc(Cl)c4)cs3)C2)cc1` (stereo not drawn) displayed an IC50 of 0.75 µM.

In the case of `Cc1ccc(C2CCN(CCCCNC(=O)c3ccc(NC(=O)c4ccc(Cl)cc4)cc3)CC2)c(C)c1`, the IC50 turned out to be 0.84 µM.

`NC(Cc1cccc(I)c1)C(=O)NCC1CCCO1` (stereo not drawn) had an IC50 of 0.89 µM.

`Cc1ccc2nc(C)cc(NN=Cc3ccc([N+](=O)[O-])o3)c2c1`: the IC50 is 0.75 µM.

As to `Cc1[nH]c(C)c(-c2ccc(-c3ccc(C(F)F)cc3)nc2)c(=O)c1Cl`, the IC50 amounted to 0.24 µM.

The compound `CCOC(=O)CNCC(=O)c1ccc(OCc2ccccc2)cc1` displayed an IC50 of 0.16 µM.

In turn, `Cc1cc2nc(-c3ccc(C(=O)NCc4cccc(C(F)(F)F)c4)cc3)[nH]c2cc1C` had an IC50 of 0.81 µM.

As for `CCCN1CCN(CCCNc2c3ccccc3nc3ccccc23)CC1`, the IC50 was determined as 0.55 µM.

As for `Cn1c(=N)n(CC(=O)OCc2ccc(OCc3ccccc3)cc2)c2ccccc21`, the IC50 is 0.08 µM.

As to `O=C(Nc1cccc(CN2CCCN(Cc3ccc(O)cc3)CC2)c1)c1cccc(C(F)(F)F)c1`, the IC50 stood at 0.31 µM.

For the compound `COc1ccc(-c2cc(C(=O)N[C@@H](CC3CCCCC3)C(=O)NCCN3CCCC3)ccc2O)cc1`, the IC50 is 0.87 µM.

Turning to `CCCCCCCCc1c(C)[nH]c(C)c(Br)c1=O`, the concentration for half-maximal inhibition (IC50) was found to be 0.82 µM.

`COc1cc2nc(NCCc3ccccc3)nc(NCc3nccs3)c2cc1OC` registered an IC50 of 0.53 µM.

In turn, `c1cc(-c2cc3ccc(C4=NCCN4)cc3[nH]2)ccc1C1=NCCN1` returned an IC50 of 0.22 µM.

`CN1CCC(N2CCN(Cc3ccc(-c4cccc(-c5nc6ccc(F)cc6[nH]5)c4)cc3)CC2)CC1` returned an IC50 of 0.17 µM.

`Clc1ccc(-c2csc3ncnc(Cl)c23)cc1` returned an IC50 of 0.46 µM.

`COc1c(C)cc(I)cc1CNCCCNc1cc(=O)c2ccccc2[nH]1` gave an IC50 of 1.28 µM.

The compound `Cc1cccc(-c2c(C)nc(N)nc2N)c1` displayed an IC50 of 1.15 µM.

Consider `COc1ccc2ccccc2c1CCCCN1CCN(CC(c2ccc(F)cc2)N2CCC2)CC1` (stereo not drawn), for which the IC50 was determined as 0.76 µM.

In turn, `COc1cccc(NC(=O)Nc2ccc(Nc3nc(C)cc(N4CCCC4)n3)cc2)c1` showed an IC50 of 0.2 µM.

For the compound `O=C(Nc1ccc(Oc2ccccc2)cc1)N[C@H]1CCN(Cc2ccc(OCCCN3CCCCC3)cc2)C1`, the IC50 was 0.18 µM.

The compound `Cc1cccc(CNc2ncc(C)c(NCCC(=O)Nc3ccccc3)n2)c1` showed an IC50 of 1.15 µM.

As for `COC(=O)c1cccc(CNCc2ccc(-c3cccc(-c4nc5c(C)cccc5[nH]4)c3)cc2)c1`, the IC50 was 0.31 µM.

On to `CC(Cc1ccc(NC(=O)c2ccc(NCCc3ccccc3)cc2)cc1)NCCc1cccc(Cl)c1` (stereo not drawn), for which the IC50 came to 0.85 µM.

In turn, `COc1ccc2ncc(F)c(CCN3CC[C@H](NC(=O)c4ccc5c(n4)NC(=O)CS5)[C@H](O)C3)c2n1` registered an IC50 of 0.95 µM.

As to `O=S(=O)(Nc1cccc(CCN2CCC(N3CCCCC3)CC2)c1)c1ccc(Oc2ccccc2)nc1`, the IC50 is 0.93 µM.

For the compound `COc1ccc(CN2CCCN(Cc3cccc(C(=O)Nc4ccc(C)c(F)c4)c3)CC2)cc1`, the IC50 came out at 1.31 µM.

`COc1ccc(-c2onc(C(F)(F)F)c2-c2cc3ccccc3o2)c(O)c1`: the IC50 worked out at 0.86 µM.

`COc1ccccc1CCNc1nc(C)cc(N[C@@H](Cc2ccccc2)C(=O)NCc2cccc(F)c2)n1` had an IC50 of 0.87 µM.

Regarding `O=C(Nc1cccc(-c2cccc(-c3ccc(F)cc3)n2)c1)c1ccc([N+](=O)[O-])o1`, the IC50 turned out to be 0.36 µM.

Regarding `CCCCCCCc1[nH]c2ccccc2c(=O)c1C`, the IC50 is 0.51 µM.

Take `CCOc1ccc(-c2nonc2NC(=O)c2ccco2)cc1OCC`: the IC50 was 0.75 µM.

For `COc1cc2nc(NCCn3ccnc3C)nc(NCCc3ccccc3)c2cc1OC`, the IC50 was 0.73 µM.

`CC(=NNC(=S)NC(c1ccccc1)c1ccccc1)c1ccccn1` showed an IC50 of 0.9 µM.

Compound `C[C@H](Cc1ccc(C[C@@H](C)NCC(O)c2cc(Cl)c(N)c(Cl)c2)cc1)NCC(O)c1cc(Cl)c(N)c(Cl)c1` (stereo partly drawn) showed an IC50 of 0.89 µM.

In turn, `CCNC[C@@H](O)[C@H](Cc1ccccc1)NC(=O)c1cc2c3c(c1)c(CC)cn3CCS(=O)(=O)N2C` gave an IC50 of 0.81 µM.

Take `CN1CCN(c2ccnc3cc4c(cc23)N(C(=O)Nc2ccc(-c3ccncc3)c3ccccc23)CC4)CC1`: the IC50 stood at 0.95 µM.

For the compound `Cc1cc(C(=O)NC2CCN(CC3(c4ccccc4)CCCCC3)CC2)on1`, the IC50 came to 0.26 µM.

For `CCC[C@]1(C)CSc2ccccc2[C@@H](c2ccccc2)N1`, the IC50 is 0.71 µM.

As for `Cc1cc(NC(=O)c2cccs2)ccc1OC1CCN(Cc2ccc(F)cc2)C1` (stereo not drawn), the half-inhibitory concentration (IC50) was 0.67 µM.

The compound `Oc1ccc2[nH]cc(C3CCN(CCC(c4ccccc4)c4ccccc4)CC3)c2c1` returned an IC50 of 0.99 µM.

Regarding `O=S1(=O)C=C(c2ccccc2)CC1`, the IC50 amounted to 0.2 µM.

In turn, `N#Cc1cccc(C(=O)NC2CCN(c3ccnc(Nc4ccc(F)cc4)n3)C2)c1` (stereo not drawn) gave an IC50 of 0.4 µM.

In the case of `O=C(Nc1ccc(C(=O)Oc2ccc3ccccc3c2)cc1)N[C@@H](Cc1ccc(O)cc1)C(=O)NC1CCN(Cc2ccc(O)cc2)C1` (stereo partly drawn), the IC50 is 1.06 µM.

`CCc1cc2c(=O)c(-c3nc(C)cs3)c(N)oc2c(CN2CCCCC2)c1O` returned an IC50 of 0.66 µM.

Compound `Cc1cc(-c2ccc3c(c2)CC[C@@H](N[C@@H](C)c2ccccc2)C3)cnc1N` showed an IC50 of 1.73 µM.

In turn, `CC(C)(CNC(=O)[C@H]1CCCN1)c1nc(-c2ccc(Cl)c(O)c2)c(-c2ccncc2)[nH]1` had an IC50 of 1.27 µM.

On to `CCN(C)C(=O)n1ncc2c3c(N)nc(N)nc3ccc21`, for which the IC50 stood at 0.18 µM.

`CCN(CC)CCN(Cc1ccc(-c2ccc(C(F)(F)F)cc2)cc1)C(=O)Cn1cc(Cc2cnn(C)c2)c(=O)nc1/C=C/c1ccc(F)cc1`: the IC50 was found to be 1.06 µM.

In turn, `O=C(NC1CCN(Cc2ccccc2)CC1)c1ccc(-c2nc3cc(F)c(F)cc3[nH]2)s1` showed a concentration for half-maximal inhibition (IC50) of 0.83 µM.

On to `CC(Oc1ccc(Cl)cc1)C(=O)NCCC1CCN(CCCCCNC(=O)/C=C/c2ccc(Cl)c(Cl)c2)CC1` (stereo not drawn), for which the IC50 worked out at 1.02 µM.

Consider `COc1ccc(-c2ccc(NC(=O)c3ccc(C#N)cc3)cc2)cc1CN1CCN(C)CC1`, for which the IC50 was determined as 0.72 µM.

Take `N#Cc1ccc(N(CCOC(=O)c2ccccc2)Cc2ccccc2C(F)(F)F)cc1C(F)(F)F`: the IC50 is 0.92 µM.

The compound `Fc1c(CNCC2CCN(CC3CCCCC3)CC2)cccc1C(F)(F)F` had an IC50 of 0.9 µM.
